Experiments:
Assay type in all cases: cell-based
[1] = molecular target: 2YF/3wt + NRG Ba/F3 cells (HER2YF/HER3wt) (Homo sapiens, UniProt P04626, Y1005F/Y1023F/Y1112F/Y1127F/Y1139F/Y1196F/Y1221F/Y1222F/Y1248F, cells depend on it); experiment: Ba/F3 proliferation assay, 2YF/3wt + NRG; conditions: Tables 7 and 8; read-out: Ba/F3 line IC50, HER2YF/HER3 + NRG
Source text: Ba/F3 cells are normally dependent on IL-3 signaling for their proliferation and survival, but can be made dependent on introduced oncogenic signals. We sequentially selected transduced Ba/F3 cells for populations stably expressing HER3 and then HER2. To ensure that all of the proliferative signal could be attributed to HER2/HER3 heterodimers, rather than HER2 homodimers, the 9 C-terminal tyrosines in HER2 were mutated to phenylalanine (HER2YF). We then withdrew IL-3 and supplemented the media with NRG to select for NRG dependent HER2YF/HER3wt cells (2YF/3wt).
For the 2YF/3wt cells, the parental cells were first transduced with HER3 according to the protocol above and were then spun down at 500×g for 5 min and re-suspended in media supplemented with 10 ng/mL IL-3 and 3 μg/mL puromycin (Invitrogen). Cells were maintained in these conditions for seven days, passaging as required. After seven days the cells were spun down, washed with fresh media, and then used for a subsequent round of transduction according to the protocol above with HER2YF virus. […] The cells were maintained in these conditions for seven days, passaging as required. After seven days the cells were spun down, washed with fresh media, and then suspended in media supplemented with 10 ng/mL of NRG. Cells were maintained in these conditions for seven days to select for a NRG dependent population of 2YF/3wt Ba/F3 cells that were then maintained as described above. The same protocol was used for the 2YF-L755S/3wt, 2YF-YVMA/3wt, and 2YF-VC/3wt cell lines using the indicated constructs.
Proliferation Assays. […] The following day media was changed to fresh media that contained either DMSO or the indicated concentration of drug plus NRG (50 ng/mL final concentration) as indicated. […] For all normalized assays, proliferation was normalized to the DMSO control condition. All graphs were plotted in GraphPad Prism 6 and fit with a non-linear regression of the log(inhibitor) vs response with a variable slope where shown. All graphs are averages (+/−standard deviation) of biological triplicates each performed in technical triplicate unless otherwise noted. If only one biological replicate was performed standard deviations were derived from the technical replicates.

Axl+ Ba/F3 cells = molecular target: T1, Axl+ Ba/F3 cells (Homo sapiens, UniProt P30530); experiment: Ba/F3 proliferation assay, Axl+; conditions: Tables 7 and 8; read-out: Ba/F3 line IC50, Axl+
T1 sequence (P30530 1-894): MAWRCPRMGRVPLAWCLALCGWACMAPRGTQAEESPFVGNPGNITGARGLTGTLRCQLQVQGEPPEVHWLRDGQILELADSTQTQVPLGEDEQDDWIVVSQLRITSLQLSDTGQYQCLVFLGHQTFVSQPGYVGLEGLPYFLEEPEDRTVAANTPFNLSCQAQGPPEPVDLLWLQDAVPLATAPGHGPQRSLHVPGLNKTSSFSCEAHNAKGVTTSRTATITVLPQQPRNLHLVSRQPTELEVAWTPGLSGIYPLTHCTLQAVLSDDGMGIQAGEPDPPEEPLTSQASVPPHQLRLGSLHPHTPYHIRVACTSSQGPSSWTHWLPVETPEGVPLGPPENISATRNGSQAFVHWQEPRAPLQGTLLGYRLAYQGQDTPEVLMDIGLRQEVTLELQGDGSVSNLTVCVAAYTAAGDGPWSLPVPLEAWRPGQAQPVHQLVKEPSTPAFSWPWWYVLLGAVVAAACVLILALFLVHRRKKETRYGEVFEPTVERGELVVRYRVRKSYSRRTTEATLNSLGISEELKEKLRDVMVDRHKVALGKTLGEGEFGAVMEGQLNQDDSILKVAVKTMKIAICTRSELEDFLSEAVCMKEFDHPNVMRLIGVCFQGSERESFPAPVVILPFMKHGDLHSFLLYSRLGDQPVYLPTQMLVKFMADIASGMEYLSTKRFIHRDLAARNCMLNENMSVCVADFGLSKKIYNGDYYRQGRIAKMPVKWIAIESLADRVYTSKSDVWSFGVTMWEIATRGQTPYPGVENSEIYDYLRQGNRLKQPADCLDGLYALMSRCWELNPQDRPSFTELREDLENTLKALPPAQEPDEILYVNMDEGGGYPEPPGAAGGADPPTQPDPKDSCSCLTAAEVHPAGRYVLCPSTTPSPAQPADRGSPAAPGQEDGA
Description: (§1) To validate the screen and test the effectiveness of counter-screening with either the same 2YF/3wt Ba/F3 cell line or the parental Ba/F3's in the presence of IL-3 to remove cytotoxic primary hits, we first tested a panel of kinase inhibitors with established mechanisms of action.
For Axl+ cells, the transduced cells were spun down at 500×g for 5 min and resuspended in media supplemented with 10 ng/mL IL-3 and 3 μg/mL puromycin (Invitrogen). Cells were maintained in these conditions for 7 days, passaging as required. After 7 days the cells were spun down, washed with fresh media, and then suspended in IL-3 free media. The cells were maintained in these conditions for 2 weeks to select for an IL-3 independent population of Axl+ driven cells.
(§2) Proliferation Assays. For adherent cell lines, cells were plated onto opaque white 96 well plates (Greiner cat #655083) and allowed to adhere overnight. The following day media was changed to fresh media that contained either DMSO or the indicated concentration of drug plus NRG (50 ng/mL final concentration) as indicated. Plates were incubated at 37° C. for 72 h and proliferation was read out using Cell Titer Glo (Promega) according to the manufacturer's protocol. For Ba/F3 cell proliferation, cells, drug dilution, and any necessary growth factors (10 ng/mL IL-3 or 6.25 ng/mL NRG) were combined in a well of a 96 well plate. Plates were incubated at 37° C. for 48 h and proliferation was read out using Cell Titer Glo according to the manufacturer's protocol. For all normalized assays, proliferation was normalized to the DMSO control condition. All graphs were plotted in GraphPad Prism 6 and fit with a non-linear regression of the log(inhibitor) vs response with a variable slope where shown. All graphs are averages (+/−standard deviation) of biological triplicates each performed in technical triplicate unless otherwise noted. If only one biological replicate was performed standard deviations were derived from the technical replicates.

[2] = test system: parental Ba/F3 cells + IL-3; experiment: Ba/F3 proliferation assay, Parental + IL-3; conditions: Mus musculus, BaF3; Tables 7 and 8; read-out: Ba/F3 line IC50, Parental + IL-3
Description: as §1, §2

HER2+/2VE Ba/F3 line = experiment: Ba/F3 proliferation assay, HER2+/2VE; conditions: Mus musculus, BaF3; Tables 7 and 8
Description: as §2

HCC827 = HCC827 cell viability; conditions: Homo sapiens, compound at 1 nM, n in the line below, read-out: HCC827 (% viable at 1 nM)
A431 = A431 cell proliferation; conditions: Homo sapiens, A-431; Table 8; n in the line below
NCI-H1975 = NCI-H1975 cell proliferation; conditions: Homo sapiens, Table 8, n in the line below

Chain of 2YF/3wt + NRG Ba/F3 cells (HER2YF/HER3wt) (P04626 whole entry Y1005F/Y1023F/Y1112F/Y1127F/Y1139F/Y1196F/Y1221F/Y1222F/Y1248F): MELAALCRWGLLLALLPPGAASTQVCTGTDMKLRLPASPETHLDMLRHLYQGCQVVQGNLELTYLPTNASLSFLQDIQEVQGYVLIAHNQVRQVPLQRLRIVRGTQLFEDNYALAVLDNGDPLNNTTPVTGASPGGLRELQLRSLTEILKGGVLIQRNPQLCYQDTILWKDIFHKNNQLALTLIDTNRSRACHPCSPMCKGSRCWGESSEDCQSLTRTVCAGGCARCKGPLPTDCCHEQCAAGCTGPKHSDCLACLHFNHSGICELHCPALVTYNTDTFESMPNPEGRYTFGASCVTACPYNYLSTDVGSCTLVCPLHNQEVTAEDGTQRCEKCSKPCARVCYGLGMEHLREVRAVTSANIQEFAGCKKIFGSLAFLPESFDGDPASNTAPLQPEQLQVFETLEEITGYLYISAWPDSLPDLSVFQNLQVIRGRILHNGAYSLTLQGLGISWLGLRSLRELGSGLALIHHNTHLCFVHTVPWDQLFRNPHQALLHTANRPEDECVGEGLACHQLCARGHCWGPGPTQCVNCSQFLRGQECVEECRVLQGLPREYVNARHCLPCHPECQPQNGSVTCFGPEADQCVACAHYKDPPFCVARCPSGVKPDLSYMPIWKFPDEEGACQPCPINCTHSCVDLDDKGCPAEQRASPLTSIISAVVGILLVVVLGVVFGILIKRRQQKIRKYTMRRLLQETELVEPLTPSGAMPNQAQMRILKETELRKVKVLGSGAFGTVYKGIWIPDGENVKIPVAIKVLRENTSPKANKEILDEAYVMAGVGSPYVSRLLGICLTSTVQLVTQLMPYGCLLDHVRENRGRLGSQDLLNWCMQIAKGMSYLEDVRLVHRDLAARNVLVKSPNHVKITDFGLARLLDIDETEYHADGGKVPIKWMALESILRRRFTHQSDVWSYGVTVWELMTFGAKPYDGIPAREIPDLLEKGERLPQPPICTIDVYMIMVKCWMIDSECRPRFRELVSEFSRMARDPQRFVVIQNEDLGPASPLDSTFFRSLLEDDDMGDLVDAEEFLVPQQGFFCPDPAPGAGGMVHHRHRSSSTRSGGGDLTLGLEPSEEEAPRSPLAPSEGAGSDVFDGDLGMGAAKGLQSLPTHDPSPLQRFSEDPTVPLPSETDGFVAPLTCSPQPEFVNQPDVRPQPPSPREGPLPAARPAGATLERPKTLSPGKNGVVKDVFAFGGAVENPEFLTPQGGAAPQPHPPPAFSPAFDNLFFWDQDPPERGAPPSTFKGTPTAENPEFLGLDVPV

Row | SMILES | GI50 [1] | GI50 (Axl+ Ba/F3 cells) | IC50 (HER2+/2VE Ba/F3 line) | IC50 (A431) | IC50 (NCI-H1975) | IC50 [2] | viability at 0.001 µM (HCC827)
1 | COc1ccc(-c2ccccc2)cc1Nc1ncnc2[nH]cc(-c3cc[nH]n3)c12 [8-089] | 20.8 nM | 1160 nM | 118 nM | 914 ± 134 nM | 2250 ± 54 nM | 2440 nM | 99.9 ± 14.6%
2 | COc1ccc(-c2ccccn2)cc1Nc1ncnc2[nH]cc(-c3cc[nH]n3)c12 [8-090] | 227 nM | 1570 nM | 895 nM | 911 nM | 2540 nM | 2250 nM | 102%
3 | COc1ccc(-c2ccsc2)cc1Nc1ncnc2[nH]cc(-c3cc[nH]n3)c12 [8-091] | 9.25 nM | 697 nM | 120 nM | 634 ± 188 nM | 1420 ± 117 nM | 2590 nM | 80.9 ± 24%
4 | COc1ccc(-c2cccs2)cc1Nc1ncnc2[nH]cc(-c3cc[nH]n3)c12 [8-092] | 20.5 nM | 1200 nM | 232 nM | 762 ± 215 nM | 1900 ± 134 nM | > 3330 nM | 81.6 ± 21.1%

Continued, in another order:

Row | GI50 [1] | GI50 (Axl+ Ba/F3 cells) | IC50 (HER2+/2VE Ba/F3 line) | IC50 (A431) | IC50 (NCI-H1975) | SMILES | IC50 [2] | viability at 0.001 µM (HCC827)
5 | 5 nM | 1310 nM | 46.7 nM | 1120 ± 59 nM | 1740 ± 157 nM | COc1ccc(-c2ccccc2)cc1Nc1ncnc2[nH]cc(-c3ccn(C)n3)c12 [8-095] | > 3330 nM | 49.2 ± 13.7%
6 | 2 nM | 501 nM | 31.4 nM | 471 ± 63.4 nM | 891 ± 18.6 nM | COc1ccc(-c2ccccc2)cc1Nc1ncnc2[nH]nc(-c3cc[nH]n3)c12 [8-096] | 1540 nM | 30.6 ± 4.2%

— patent US20190119284A1, “ErbB Inhibitors and Uses Thereof” (The Regents of the University of California, priority 2016, published 2019)
